Results reported in patent US20240124381A1, “Renewable Bio-advantaged plasticizer generated by reductive coupling of lignin-derived aromatics” (Alliance for Sustainable Energy, LLC, priority 2022, published 2024).

Experiments:
[1] = Glass transition temperature of plasticized PVC by differential scanning calorimetry (DSC); assay type: physicochemical; details: PVC composite with 10 wt % plasticizer; unplasticized PVC 83.0 ° C.; lower preferred
Excerpt: (§1) FIG. 5 provides thermal analysis of lignin-derived biaryl plasticizers. From left to right: unplasticized PVC, 10 wt % plasticized PVC with DEHP, and 10 wt % plasticized PVC with lignin-derived biaryl plasticizers.
(§2) Plasticizer properties of lignin-derived biaryls. The above results provide access to all possible homo- and cross-coupled BPDA derivatives of H, G, and S. These structures provide the basis for testing of these materials as plasticizers for PVC and comparison of their performance relative to the existing petroleum-derived incumbent, di(2-ethylhexyl)phthalate (DEHP). Each of the BPDA methyl esters was subjected to Ti(OBu)4-promoted transesterification with 2-ethylhexanol to afford the corresponding DEH-BPDA derivatives, designated H—H^PL, H-G^PL, H—S^PL, G-G^PL, G-S^PL, and S—S^PL. The thermal properties of these structures were characterized by thermogravimetric analysis (TGA) and differential scanning calorimetry (DSC). DEHP and the DEH-BPDA derivatives were then individually integrated with PVC at 10 wt %, and the composites were analyzed by TGA and DSC to identify their glass transition temperature (Tg) and the temperature at which the polymer degrades with 10% or 50% loss of its original weight (Td10, Td50). The former value reflects the ability of the plasticizer to soften PVC, while the latter values reflect the thermostability of the composite material. […]

[2] = Thermostability of plasticized PVC by thermogravimetric analysis (TGA); assay type: physicochemical; details: PVC composite with 10 wt % plasticizer; PVC itself 272 ° C.; higher preferred
Excerpt: as §1, §2

For `CCCCC(CC)COC(=O)c1ccccc1C(=O)OCC(CC)CCCC` (centres unmarked) [DEHP, di(2-ethylhexyl)phthalate], the “glass transition temperature (Tg)” value [1] was 52.1 °C and the “Td10 (temperature at which the polymer degrades with 10% loss of its original weight)” value [2] was 253 °C.
